Test results as given in publication PMC9611726, “Synthesis, Characterization and Biological Investigation of New N-Modified Spinorphin Analogs” (Pharmaceuticals, 2022).
Marks after values point to notes of the source that are not given here. Where a SMILES comes first, the peptide text is derived from it. [ ]: non-standard residue; d: D form. The star is where a group is joined. X1 = CCN(CC)c1ccc2c(c1)Oc1cc(N(CC)CC)ccc1C2c1ccccc1C(=O)*; Ac6c = NC1(C(=O)O)CCCCC1; Ac5c = NC1(C(=O)O)CCCC1

What was measured:
[1] = Partition coefficient, shake-flask method, 1-octanol/phosphate buffer; format: physicochemical; conditions: shake-flask 1-octanol/phosphate buffer (NaH2PO4/Na2HPO4), pH 7.41 ± 0.01, 25 °C, system stirred 12 h, absorbance and emission read-out, standard additions
Excerpt: The effectiveness of biomolecules is mainly due to specific structural and physicochemical properties. In principle, the properties of peptides/proteins are very diverse and directly related to their bioactivity. […] With the manifestation of hydrophilic properties, the occurrence of a hydration process is possible; swelling, increasing their mass and volume, while it is possible to partially limit the solubility of the molecule, in which case the peptide molecule becomes more unstable. At the isoelectric point, peptides have the least ability to bind water, i.e., to hydrate; the hydration shell around the peptide molecules breaks down so that they combine to form, for example, aggregates. When the pH of the medium changes, the peptide macromolecule is charged, and its hydration capacity changes. […] Due to the obtained values, the studied compounds can be arranged in the following sequence from hydrophilic to hydrophobic (lipophilic): Rh-S > Rh-S5 > Rh-S6. This corresponds to the data from the morphology of the compound, where an analogous order of increasing porosity/hydrophilicity was found (Figure 3). It can be seen that the replacement of natural proline with unnatural steric restricted amino acids such as 1-aminocyclopentanecarboxylic acid (Ac5c) and 1-aminocyclohexanecarboxylic acid (Ac6c) (neuropeptides Rh-S5 and Rh-S6) leads to an increase in lipophilicity, which would assist passage through the brain barrier and increase the efficiency of the molecule. […]
The partition coefficients of the spinorphin-rhodamine derivatives were determined in a 1-octanol/phosphate buffer system (NaH2PO4/Na2HPO4, pH 7.41 ± 0.01). […] After separation, the absorbance and emission of the solutions of the two phases were measured and the amount of dissolved analyte was determined by the method of standard additions. […] The partition coefficient was calculated by the following equation: P = C^oct/buf/C^buf/oct, where C^oct/buf and C^buf/oct are the molar concentrations of the solute in the mutually saturated phases of 1-octanol and buffer.

tonic seizures (MES) = experiment: Maximal electroshock test (MES test); format: in vivo, mice; conditions: i.c.v.; for % Mortality / % Protection / No. of Animals Protected/No. of Animals Tested: male ICR mice; for No. of Animals Protected/No. of Animals Tested: test 10 min after administration
Excerpt: The screeing test for anticonvulsant activity of drugs was perfomed on male ICR mice (25–30 g), purchased by the vivarium of the Institute of Neurobiology, BAS. They were kept in standard laboratory conditions and cages in groups of 5–6 per cage with ad libitum access to commercial pellets for rodents and water. After a week of adaptation, all mice were allocated in groups of 6 according to their treatment and test procedure. Each mouse was used only for one experiment. All procedures were performed in agreement with the European Communities Council Directive 2010/63/EU. The experimental design was approved by the Bulgarian Food Safety Agency (#300/№ 5888–0183).
[…] The test for anticonvulsant activity was carried out 10 min after drug administration.
The MES test was carried out with the device used for the 6-Hz test according to the protocol reported in [38, 39]. The criterion for protection was accepted when the mouse […].
For the 6-Hz test and MES a Fisher’s exact test (two-tailed) was applied. A one-way ANOVA of variance was used for the ivPTZ test and a Dunnet post hoc test in case of significance. Statistical significance was accepted at p ≤ 0.05 vs. control (Fisher’s exact test). The calculations were carried out with SigmaPlot program (11.0 version) and Graph Pad Prizm (Version 7.04) (GraphPad Software, San Diego, CA, USA).

CCN(CC)c1ccc2c(c1)Oc1cc(N(CC)CC)ccc1C2c1ccccc1C(=O)N[C@@H](CC(C)C)C(=O)N[C@H](C(=O)N[C@H](C(=O)N[C@@H](Cc1ccc(O)cc1)C(=O)NC1(C(=O)N[C@@H](Cc2c[nH]c3ccccc23)C(=O)N[C@H](C(N)=O)[C@@H](C)O)CCCC1)C(C)C)C(C)C [Rh-S5, rhodamineB-Leu-Val-Val-Tyr-Ac5c-Trp-Thr-NH2] (X1-LVVY[Ac5c]WT-NH2)
logD [1]: -0.168 | % Mortality (tonic seizures (MES); MES test, dose 5 µg/10 µL): 17% | % Protection (tonic seizures (MES); MES test, dose 5 µg/10 µL): 41% | % Mortality (tonic seizures (MES); MES test, dose 10 µg/10 µL): 17% | % Protection (tonic seizures (MES); MES test, dose 10 µg/10 µL): 42% | No. of Animals Protected/No. of Animals Tested (tonic seizures (MES); MES test, dose 10 µg/10 µL): 5/12 | % Mortality (tonic seizures (MES); MES test, dose 20 µg/10 µL): 17% | % Protection (tonic seizures (MES); MES test, dose 20 µg/10 µL): 67 * % | No. of Animals Protected/No. of Animals Tested (tonic seizures (MES); MES test, dose 20 µg/10 µL): 4/6 | protective potency against tonic seizures (in words) (tonic seizures (MES); MES test, mice, dose of 20 µg, p ≤ 0.05 compared to control): stronger protective potency compared to the heptapeptide Rh-S

CCN(CC)c1ccc2c(c1)Oc1cc(N(CC)CC)ccc1C2c1ccccc1C(=O)N[C@@H](CC(C)C)C(=O)N[C@H](C(=O)N[C@H](C(=O)N[C@@H](Cc1ccc(O)cc1)C(=O)NC1(C(=O)N[C@@H](Cc2c[nH]c3ccccc23)C(=O)N[C@H](C(N)=O)[C@@H](C)O)CCCCC1)C(C)C)C(C)C [Rh-S6, rhodamineB-Leu-Val-Val-Tyr-Ac6c-Trp-Thr-NH2] (X1-LVVY[Ac6c]WT-NH2)
logD [1]: -0.197 | % Mortality (tonic seizures (MES); MES test, dose 5 µg/10 µL): 0% | % Protection (tonic seizures (MES); MES test, dose 5 µg/10 µL): 100 * % | No. of Animals Protected/No. of Animals Tested (tonic seizures (MES); MES test, dose 5 µg/10 µL): 6/6 | % Mortality (tonic seizures (MES); MES test, dose 10 µg/10 µL): 0% | % Protection (tonic seizures (MES); MES test, dose 10 µg/10 µL): 100 * % | No. of Animals Protected/No. of Animals Tested (tonic seizures (MES); MES test, dose 10 µg/10 µL): 6/6 | % Mortality (tonic seizures (MES); MES test, dose 20 µg/10 µL): 0% | % Protection (tonic seizures (MES); MES test, dose 20 µg/10 µL): 100 * % | No. of Animals Protected/No. of Animals Tested (tonic seizures (MES); MES test, dose 20 µg/10 µL): 6/6 | mortality in the MES test (in words) (tonic seizures (MES); mice, at the three doses studied (5, 10 and 20 μg)): no mortality | protection in the MES test (tonic seizures (MES); mice, at the three doses studied (5, 10 and 20 μg), p ≤ 0.05 compared to control): 100%

CCN(CC)c1ccc2c(c1)Oc1cc(N(CC)CC)ccc1C2c1ccccc1C(=O)N[C@@H](CC(C)C)C(=O)N[C@H](C(=O)N[C@H](C(=O)N[C@@H](Cc1ccc(O)cc1)C(=O)N1CCC[C@H]1C(=O)N[C@@H](Cc1c[nH]c2ccccc12)C(=O)N[C@H](C(N)=O)[C@@H](C)O)C(C)C)C(C)C [Rh-S, rhodamineB-Leu-Val-Val-Tyr-Pro-Trp-Thr-NH2] (X1-LVVYPWT-NH2)
logD [1]: 0.54 | % Mortality (tonic seizures (MES); MES test, dose 5 µg/10 µL): 50% | % Protection (tonic seizures (MES); MES test, dose 5 µg/10 µL): 50% | No. of Animals Protected/No. of Animals Tested (tonic seizures (MES); MES test, dose 5 µg/10 µL): 3/6 | % Mortality (tonic seizures (MES); MES test, dose 10 µg/10 µL): 0% | % Protection (tonic seizures (MES); MES test, dose 10 µg/10 µL): 50% | No. of Animals Protected/No. of Animals Tested (tonic seizures (MES); MES test, dose 10 µg/10 µL): 3/6 | % Mortality (tonic seizures (MES); MES test, dose 20 µg/10 µL): 33% | % Protection (tonic seizures (MES); MES test, dose 20 µg/10 µL): 67 * % | No. of Animals Protected/No. of Animals Tested (tonic seizures (MES); MES test, dose 20 µg/10 µL): 4/6
